Data published in patent US6284768A, “Src family SH2 domain inhibitors” (Boehringer Ingelheim Pharmaceuticals, Inc., priority 1999, dated 2001).

Biological target: T1, p56lck GST-SH2 (lck SH2 domain) (Homo sapiens, UniProt P06239)
T1 construct: GST (N)
Experiment: Receptor-ligand equilibrium binding constants by surface plasmon resonance (biosensor), lck SH2 domain
Conditions: Table 1, compounds of formula (II)

T1 sequence (P06239 127-224 limits assumed): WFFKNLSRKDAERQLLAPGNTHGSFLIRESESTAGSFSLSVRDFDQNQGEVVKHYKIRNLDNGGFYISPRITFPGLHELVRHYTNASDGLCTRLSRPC

| Kd [µM] | SMILES |
| --- | --- |
| 4.6 | COc1ccc(Cn2ccc(C)c(NC(=O)[C@H](Cc3ccc(NC(=O)C(=O)O)cc3)NC(=O)Cc3csc(NC=O)n3)c2=O)cc1 [Compound 13] |
| 1.5 | COc1ccc(Cn2ccc(C)c(NC(=O)[C@H](Cc3ccc(NC(=O)C(=O)O)cc3)NC(=O)Cc3ccc(Br)cc3)c2=O)cc1 [Compound 36] |
| 1.8 | COc1ccc(Cn2ccc(C)c(NC(=O)[C@H](Cc3ccc(NC(=O)C(=O)O)cc3)NC(=O)Cc3nc(-c4ccccc4)sc3C)c2=O)cc1 [Compound 15] |
| 3.7 | COc1ccc(Cn2ccc(C)c(NC(=O)[C@H](Cc3ccc(NC(=O)C(=O)O)cc3)NC(=O)Cc3ccc([N+](=O)[O-])cc3)c2=O)cc1 [Compound 33] |
| 1.9 | COc1ccc(Cn2ccc(C)c(NC(=O)[C@H](Cc3ccc(NC(=O)C(=O)O)cc3)NC(=O)Cc3ccccc3)c2=O)cc1 [Compound 102] |
| > 11 | COc1ccc(Cn2ccc(C)c(NC(=O)[C@H](Cc3ccc(NC(=O)C(=O)O)cc3)NC(=O)Nc3nc4ccccc4s3)c2=O)cc1 [Compound 7] |
| 0.43 | COc1ccc(Cn2ccc(C)c(NC(=O)[C@H](Cc3ccc(C(C)(C)C(=O)O)cc3)NC(=O)Cc3c[nH]c4ccccc34)c2=O)cc1 [Compound 98] |
| 1.9 | COc1ccc(Cn2ccc(C)c(NC(=O)[C@H](Cc3ccc(CC(=O)O)cc3)NC(=O)Cc3cc4ccccc4cc3C)c2=O)cc1 [Compound 60] |
| 0.82 | COc1ccc(Cn2ccc(C)c(NC(=O)[C@H](Cc3ccc(NC(=O)C(=O)O)cc3)NC(=O)Cc3cccc([N+](=O)[O-])c3)c2=O)cc1 [Compound 105] |
| 3.3 | COc1ccc(Cn2ccc(C)c(NC(=O)[C@H](Cc3ccc(CC(=O)O)cc3)NC(=O)COc3cc4ccccc4cn3)c2=O)cc1 [Compound 86] |

The next lines start with the compound.

| SMILES | Kd [µM] |
| --- | --- |
| Cc1ccn(CC2CCCCC2)c(=O)c1NC(=O)[C@H](Cc1ccc(CC(=O)O)cc1)NC(=O)C(C)(C)C [Compound 67] | 64 |
| Cc1ccn(CC2CCOC2)c(=O)c1NC(=O)C(Cc1ccc(C(C)(C)C(=O)O)cc1)NC(=O)C(C)(C)c1ccc2ccccc2c1 (stereo not shown) [Compound 212] | 23 |
| COc1ccc(Cn2ccc(C)c(NC(=O)C(Cc3ccc(C(C)(C)C(=O)O)cc3)NC(=O)Cc3ccc4ccccc4c3)c2=O)cc1O (stereo not shown) [Compound 160] | 5.8 |
| COc1ccc(Cn2ccc(CCO)c(NC(=O)C(Cc3ccc(C(C)(C)C(=O)O)cc3)NC(=O)C(C)(C)c3ccc4ccccc4c3)c2=O)cc1 (stereo not shown) [Compound 223] | 2.4 |
| COc1ccc(Cn2ccc(C)c(NC(=O)[C@H](Cc3ccc(CC(=O)O)cc3)NC(=O)C(F)(F)F)c2=O)cc1 [Compound 87] | 18 |
| Cc1ccn(Cc2ccc(OC(F)(F)F)cc2)c(=O)c1NC(=O)[C@H](Cc1ccc(CC(=O)O)cc1)NC(=O)Cc1cccc2ccccc12 [Compound 53, 3-[2'-(S)-(1'"-Naphthyl)acetlyamino-3'-(4"-carboxymethyl)benzene]propanoylamino-1-(4-trifluoromethoxybenzyl)-4-methyl-2-pyridone] | 12.7 |
| Cc1ccn(CCc2ccccc2)c(=O)c1NC(=O)[C@H](Cc1ccc(CC(=O)O)cc1)NC(=O)Cc1cccc2ccccc12 [Compound 21] | 30.5 |
| COc1ccc(Cn2cc(Br)c(C)c(NC(=O)[C@H](Cc3ccc(C(C)(C)C(=O)O)cc3)NC(=O)Cc3ccc(C(F)(F)F)cc3)c2=O)cc1 [Compound 228] | 0.08 |
| COc1ccc(Cn2ccc(C)c(NC(=O)[C@H](Cc3ccc(C(C)(C)C(=O)O)cc3)NC(=O)[C@@H](C)c3cccc4ccccc34)c2=O)cc1 [Compound 45] | 3.4 |
| Cc1ccn(CC=CCC2CCCCC2)c(=O)c1NC(=O)[C@H](Cc1ccc(CC(=O)O)cc1)NC(=O)Cc1cccc2ccccc12 [Compound 12] | > 250 |
| COc1ccc(Cn2ccc(C)c(NC(=O)[C@H](Cc3ccc(C(C)(C)C(=O)O)cc3)NC(=O)Cc3ccc(N(C)C)cc3)c2=O)cc1 [Compound 99] | 0.13 |
| Cc1ccn(C/C=C/c2ccccc2)c(=O)c1NC(=O)C(Cc1ccc(C(C)(C)C(=O)O)cc1)NC(=O)Cc1ccc2ccccc2c1 (racemic) [Compound 115] | 1.2 |
